{"source": "paper PMC9241976", "about": "(Chemical Science, 2022)", "test_system": "MCF-7 cells", "experiment": "Sulforhodamine B assay, cytostatic and cytotoxic activity", "assay_type": "cell-based, human", "settings": "LC50 versus GI50 of the same compound", "data": [{"substance": "polytheonamide B [Compound 5]", "values": [{"measurement": "difference between GI50 and LC50", "value": 19, "unit": "fold"}]}]}
